Reference: ChEMBL document CHEMBL3272333, “Synthesis and biologic distribution of radioiodinated beta-adrenergic antagonists” (J Med Chem, 1978)

Legend:
Parameters in all cases: dose 0.5-1 mg/kg, route intravenous
Liver [1] = test: Biodistribution in Sprague-Dawley rat liver at 0.5 to 1 mg/kg, iv after 15 mins by gamma-well counting analysis; format: ADME, organism-based; conditions: in vivo, 0.25 h
Spleen [2] = test: Biodistribution in Sprague-Dawley rat spleen at 0.5 to 1 mg/kg, iv after 15 mins by gamma-well counting analysis; format: ADME, organism-based; conditions: in vivo, 0.25 h
Lung [3] = test: Biodistribution in Sprague-Dawley rat lung at 0.5 to 1 mg/kg, iv after 15 mins by gamma-well counting analysis; format: ADME, organism-based; conditions: in vivo, 0.25 h
Heart [4] = test: Biodistribution in Sprague-Dawley rat heart at 0.5 to 1 mg/kg, iv after 15 mins by gamma-well counting analysis; format: ADME, organism-based; conditions: in vivo, 0.25 h
Kidney [5] = test: Biodistribution in Sprague-Dawley rat kidney at 0.5 to 1 mg/kg, iv after 15 mins by gamma-well counting analysis; format: ADME, organism-based; conditions: in vivo, 0.25 h
Muscle tissue [6] = test: Biodistribution in Sprague-Dawley rat muscle at 0.5 to 1 mg/kg, iv after 15 mins by gamma-well counting analysis; format: ADME, organism-based; conditions: in vivo, 0.25 h
Bone [7] = test: Biodistribution in Sprague-Dawley rat bone at 0.5 to 1 mg/kg, iv after 15 mins by gamma-well counting analysis; format: ADME, organism-based, Bone element; conditions: in vivo, 0.25 h
Blood [8] = test: Biodistribution in Sprague-Dawley rat blood at 0.5 to 1 mg/kg, iv after 15 mins by gamma-well counting analysis; format: ADME, organism-based; conditions: in vivo, 0.25 h
Thyroid gland [9] = test: Biodistribution in Sprague-Dawley rat thyroid at 0.5 to 1 mg/kg, iv after 15 mins by gamma-well counting analysis; format: ADME, organism-based; conditions: in vivo, 0.25 h
Liver [10] = test: Biodistribution in Sprague-Dawley rat liver at 0.5 to 1 mg/kg, iv after 1 hr by gamma-well counting analysis; format: ADME, organism-based; conditions: in vivo
Spleen [11] = test: Biodistribution in Sprague-Dawley rat spleen at 0.5 to 1 mg/kg, iv after 1 hr by gamma-well counting analysis; format: ADME, organism-based; conditions: in vivo
Lung [12] = test: Biodistribution in Sprague-Dawley rat lung at 0.5 to 1 mg/kg, iv after 1 hr by gamma-well counting analysis; format: ADME, organism-based; conditions: in vivo
Heart [13] = test: Biodistribution in Sprague-Dawley rat heart at 0.5 to 1 mg/kg, iv after 1 hr by gamma-well counting analysis; format: ADME, organism-based; conditions: in vivo
Kidney [14] = test: Biodistribution in Sprague-Dawley rat kidney at 0.5 to 1 mg/kg, iv after 1 hr by gamma-well counting analysis; format: ADME, organism-based; conditions: in vivo
Muscle tissue [15] = test: Biodistribution in Sprague-Dawley rat muscle at 0.5 to 1 mg/kg, iv after 1 hr by gamma-well counting analysis; format: ADME, organism-based; conditions: in vivo
Bone [16] = test: Biodistribution in Sprague-Dawley rat bone at 0.5 to 1 mg/kg, iv after 1 hr by gamma-well counting analysis; format: ADME, organism-based, Bone element; conditions: in vivo
Blood [17] = test: Biodistribution in Sprague-Dawley rat blood at 0.5 to 1 mg/kg, iv after 1 hr by gamma-well counting analysis; format: ADME, organism-based; conditions: in vivo
Liver [18] = test: Biodistribution in Sprague-Dawley rat liver assessed per organ at 0.5 to 1 mg/kg, iv after 15 mins by gamma-well counting analysis; format: ADME, organism-based; conditions: in vivo, 0.25 h
Spleen [19] = test: Biodistribution in Sprague-Dawley rat spleen assessed per organ at 0.5 to 1 mg/kg, iv after 15 mins by gamma-well counting analysis; format: ADME, organism-based; conditions: in vivo, 0.25 h
Lung [20] = test: Biodistribution in Sprague-Dawley rat lung assessed per organ at 0.5 to 1 mg/kg, iv after 15 mins by gamma-well counting analysis; format: ADME, organism-based; conditions: in vivo, 0.25 h
Heart [21] = test: Biodistribution in Sprague-Dawley rat heart assessed per organ at 0.5 to 1 mg/kg, iv after 15 mins by gamma-well counting analysis; format: ADME, organism-based; conditions: in vivo, 0.25 h
Stomach [22] = test: Biodistribution in Sprague-Dawley rat stomach assessed per organ at 0.5 to 1 mg/kg, iv after 15 mins by gamma-well counting analysis; format: ADME, organism-based; conditions: in vivo, 0.25 h
Kidney [23] = test: Biodistribution in Sprague-Dawley rat kidney assessed per organ at 0.5 to 1 mg/kg, iv after 15 mins by gamma-well counting analysis; format: ADME, organism-based; conditions: in vivo, 0.25 h
Small intestine [24] = test: Biodistribution in Sprague-Dawley rat small intestine assessed per organ at 0.5 to 1 mg/kg, iv after 15 mins by gamma-well counting analysis; format: ADME, organism-based; conditions: in vivo, 0.25 h
Large intestine [25] = test: Biodistribution in Sprague-Dawley rat large intestine assessed per organ at 0.5 to 1 mg/kg, iv after 15 mins by gamma-well counting analysis; format: ADME, organism-based; conditions: in vivo, 0.25 h
Muscle tissue [26] = test: Biodistribution in Sprague-Dawley rat muscle assessed per organ at 0.5 to 1 mg/kg, iv after 15 mins by gamma-well counting analysis; format: ADME, organism-based; conditions: in vivo, 0.25 h
[27] = Biodistribution in Sprague-Dawley rat fat and fur assessed per organ at 0.5 to 1 mg/kg, iv after 15 mins by gamma-well counting analysis; format: ADME, organism-based, Adipose tissue; conditions: in vivo, 0.25 h
Bone [28] = test: Biodistribution in Sprague-Dawley rat bone assessed per organ at 0.5 to 1 mg/kg, iv after 15 mins by gamma-well counting analysis; format: ADME, organism-based, Bone element; conditions: in vivo, 0.25 h
Blood [29] = test: Biodistribution in Sprague-Dawley rat blood assessed per organ at 0.5 to 1 mg/kg, iv after 15 mins by gamma-well counting analysis; format: ADME, organism-based; conditions: in vivo, 0.25 h
Thyroid gland [30] = test: Biodistribution in Sprague-Dawley rat thyroid assessed per organ at 0.5 to 1 mg/kg, iv after 15 mins by gamma-well counting analysis; format: ADME, organism-based; conditions: in vivo, 0.25 h
Liver [31] = test: Biodistribution in Sprague-Dawley rat liver assessed per organ at 0.5 to 1 mg/kg, iv after 1 hr by gamma-well counting analysis; format: ADME, organism-based; conditions: in vivo
Spleen [32] = test: Biodistribution in Sprague-Dawley rat spleen assessed per organ at 0.5 to 1 mg/kg, iv after 1 hr by gamma-well counting analysis; format: ADME, organism-based; conditions: in vivo
Lung [33] = test: Biodistribution in Sprague-Dawley rat lung assessed per organ at 0.5 to 1 mg/kg, iv after 1 hr by gamma-well counting analysis; format: ADME, organism-based; conditions: in vivo
Heart [34] = test: Biodistribution in Sprague-Dawley rat heart assessed per organ at 0.5 to 1 mg/kg, iv after 1 hr by gamma-well counting analysis; format: ADME, organism-based; conditions: in vivo
Stomach [35] = test: Biodistribution in Sprague-Dawley rat stomach assessed per organ at 0.5 to 1 mg/kg, iv after 1 hr by gamma-well counting analysis; format: ADME, organism-based; conditions: in vivo
Kidney [36] = test: Biodistribution in Sprague-Dawley rat kidney assessed per organ at 0.5 to 1 mg/kg, iv after 1 hr by gamma-well counting analysis; format: ADME, organism-based; conditions: in vivo
Small intestine [37] = test: Biodistribution in Sprague-Dawley rat small intestine assessed per organ at 0.5 to 1 mg/kg, iv after 1 hr by gamma-well counting analysis; format: ADME, organism-based; conditions: in vivo
Large intestine [38] = test: Biodistribution in Sprague-Dawley rat large intestine assessed per organ at 0.5 to 1 mg/kg, iv after 1 hr by gamma-well counting analysis; format: ADME, organism-based; conditions: in vivo
Muscle tissue [39] = test: Biodistribution in Sprague-Dawley rat muscle assessed per organ at 0.5 to 1 mg/kg, iv after 1 hr by gamma-well counting analysis; format: ADME, organism-based; conditions: in vivo
[40] = Biodistribution in Sprague-Dawley rat fat and fur assessed per organ at 0.5 to 1 mg/kg, iv after 1 hr by gamma-well counting analysis; format: ADME, organism-based, Adipose tissue; conditions: in vivo
Bone [41] = test: Biodistribution in Sprague-Dawley rat bone assessed per organ at 0.5 to 1 mg/kg, iv after 1 hr by gamma-well counting analysis; format: ADME, organism-based, Bone element; conditions: in vivo
Blood [42] = test: Biodistribution in Sprague-Dawley rat blood assessed per organ at 0.5 to 1 mg/kg, iv after 1 hr by gamma-well counting analysis; format: ADME, organism-based; conditions: in vivo
Thyroid gland [43] = test: Biodistribution in Sprague-Dawley rat thyroid assessed per organ at 0.5 to 1 mg/kg, iv after 1 hr by gamma-well counting analysis; format: ADME, organism-based; conditions: in vivo
Thyroid gland [44] = test: Biodistribution in Sprague-Dawley rat thyroid at 0.5 to 1 mg/kg, iv after 1 hr by gamma-well counting analysis; format: ADME, organism-based; conditions: in vivo

Compound `CC(=O)c1cc(NC(=O)c2cccc([125I])c2)ccc1OCC(O)CNC(C)C` (racemic) has a Drug uptake (Liver [1]) of 2.4 % ID/g, a Drug uptake (Spleen [2]) of 0.97 % ID/g and a Drug uptake (Lung [3]) of 1.63 % ID/g. It also gave a Drug uptake (Heart [4]) of 0.99 % ID/g, a Drug uptake (Kidney [5]) of 2.8 % ID/g and a Drug uptake (Muscle tissue [6]) of 0.22 % ID/g. It also gave a Drug uptake (Bone [7]) of 0.22 % ID/g, a Drug uptake (Blood [8]) of 0.09 % ID/g and a Drug uptake (Thyroid gland [9]) of 6.06 % ID/g. It also gave a Drug uptake (Liver [10]) of 1.59 % ID/g, a Drug uptake (Spleen [11]) of 0.6 % ID/g and a Drug uptake (Lung [12]) of 1.27 % ID/g. For the same compound, the Drug uptake (Heart [13]) was 0.58 % ID/g, the Drug uptake (Kidney [14]) was 1.16 % ID/g and the Drug uptake (Muscle tissue [15]) was 0.2 % ID/g. The Drug uptake (Bone [16]) was 0.17 % ID/g, the Drug uptake (Blood [17]) was 0.06 % ID/g and the Drug uptake (Liver [18]) was 20.19 %ID. It also gave a Drug uptake (Spleen [19]) of 0.52 %ID, a Drug uptake (Lung [20]) of 1.77 %ID and a Drug uptake (Heart [21]) of 0.66 %ID. It also gave a Drug uptake (Stomach [22]) of 1.26 %ID, a Drug uptake (Kidney [23]) of 4.38 %ID and a Drug uptake (Small intestine [24]) of 9.39 %ID. It also gave a Drug uptake (Large intestine [25]) of 2.42 %ID, a Drug uptake (Muscle tissue [26]) of 16.64 %ID and a Drug uptake [27] of 7.66 %ID. The Drug uptake (Bone [28]) was 2.49 %ID, the Drug uptake (Blood [29]) was 1 %ID and the Drug uptake (Thyroid gland [30]) was 0.12 %ID. The Drug uptake (Liver [31]) was 12.11 %ID, the Drug uptake (Spleen [32]) was 0.31 %ID and the Drug uptake (Lung [33]) was 1.41 %ID. The Drug uptake (Heart [34]) was 0.31 %ID, the Drug uptake (Stomach [35]) was 1.19 %ID and the Drug uptake (Kidney [36]) was 1.83 %ID. For the same compound, the Drug uptake (Small intestine [37]) was 15.4 %ID, the Drug uptake (Large intestine [38]) was 1.01 %ID and the Drug uptake (Muscle tissue [39]) was 14.87 %ID. The Drug uptake [40] was 6.73 %ID, the Drug uptake (Bone [41]) was 1.94 %ID and the Drug uptake (Blood [42]) was 0.74 %ID. For the same compound, the Drug uptake (Thyroid gland [43]) was 0.17 %ID.

Work on `CC(C)NCC(O)COc1ccc(NC(=O)c2cccc([125I])c2)cc1` (racemic) yielded a Drug uptake (Liver [1]) of 1.76 % ID/g, a Drug uptake (Spleen [2]) of 1.33 % ID/g and a Drug uptake (Lung [3]) of 1.24 % ID/g. It also gave a Drug uptake (Heart [4]) of 0.89 % ID/g, a Drug uptake (Kidney [5]) of 1.82 % ID/g and a Drug uptake (Muscle tissue [6]) of 0.2 % ID/g. The Drug uptake (Bone [7]) was 0.21 % ID/g, the Drug uptake (Blood [8]) was 0.06 % ID/g and the Drug uptake (Thyroid gland [9]) was 4.73 % ID/g. It also gave a Drug uptake (Liver [10]) of 1.39 % ID/g, a Drug uptake (Spleen [11]) of 1.14 % ID/g and a Drug uptake (Lung [12]) of 1.82 % ID/g. The Drug uptake (Heart [13]) was 0.51 % ID/g, the Drug uptake (Kidney [14]) was 1.27 % ID/g and the Drug uptake (Muscle tissue [15]) was 0.17 % ID/g. For the same compound, the Drug uptake (Bone [16]) was 0.18 % ID/g, the Drug uptake (Blood [17]) was 0.06 % ID/g and the Drug uptake (Thyroid gland [44]) was 3.58 % ID/g. The Drug uptake (Liver [18]) was 18.94 %ID, the Drug uptake (Spleen [19]) was 0.8 %ID and the Drug uptake (Lung [20]) was 1.89 %ID. The Drug uptake (Heart [21]) was 0.64 %ID, the Drug uptake (Stomach [22]) was 0.71 %ID and the Drug uptake (Kidney [23]) was 3.45 %ID. For the same compound, the Drug uptake (Small intestine [24]) was 2.45 %ID, the Drug uptake (Large intestine [25]) was 0.56 %ID and the Drug uptake (Muscle tissue [26]) was 18.27 %ID. It also gave a Drug uptake [27] of 5.87 %ID, a Drug uptake (Bone [28]) of 2.93 %ID and a Drug uptake (Blood [29]) of 0.79 %ID. For the same compound, the Drug uptake (Thyroid gland [30]) was 0.1 %ID, the Drug uptake (Liver [31]) was 15.97 %ID and the Drug uptake (Spleen [32]) was 0.6 %ID. The Drug uptake (Lung [33]) was 2.19 %ID, the Drug uptake (Heart [34]) was 0.35 %ID and the Drug uptake (Stomach [35]) was 0.7 %ID. For the same compound, the Drug uptake (Kidney [36]) was 2.3 %ID, the Drug uptake (Small intestine [37]) was 5.49 %ID and the Drug uptake (Large intestine [38]) was 0.94 %ID. The Drug uptake (Muscle tissue [39]) was 15.96 %ID, the Drug uptake [40] was 7.19 %ID and the Drug uptake (Bone [41]) was 2.44 %ID. It also gave a Drug uptake (Blood [42]) of 0.86 %ID and a Drug uptake (Thyroid gland [43]) of 0.07 %ID.
